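Test compounds were applied to cells in 96-well plates for 48 hours at 5 doses. The concentration for 50% growth inhibition is given as GI50. TGI marks complete inhibition of growth.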
Tests used:
Test in all cases: NCI tumour cell line growth inhibition, 48 h
NCI/ADR-RES ovarian = test system: NCI/ADR-RES ovarian
NCI-H23 lung = test system: NCI-H23 lung
SF-268 CNS = test system: SF-268 CNS
786-0 renal = test system: 786-0 renal
MALME-3M melanoma = test system: MALME-3M melanoma
K-562 leukemia = test system: K-562 leukemia
SNB-19 CNS = test system: SNB-19 CNS
CAKI-1 renal = test system: CAKI-1 renal
UO-31 renal = test system: UO-31 renal
ACHN renal = test system: ACHN renal
NCI-H460 lung = test system: NCI-H460 lung
HS 578T breast = test system: HS 578T breast
SK-MEL-2 melanoma = test system: SK-MEL-2 melanoma
BT-549 breast = test system: BT-549 breast
SW-620 colon = test system: SW-620 colon
UACC-257 melanoma = test system: UACC-257 melanoma
UACC-62 melanoma = test system: UACC-62 melanoma
OVCAR-5 ovarian = test system: OVCAR-5 ovarian
NCI-H226 lung = test system: NCI-H226 lung
SN12C renal = test system: SN12C renal
MCF7 breast = test system: MCF7 breast
M14 melanoma = test system: M14 melanoma
OVCAR-4 ovarian = test system: OVCAR-4 ovarian
T-47D breast = test system: T-47D breast
U251 CNS = test system: U251 CNS
HT29 colon = test system: HT29 colon
HCT-116 colon = test system: HCT-116 colon
DU-145 prostate = test system: DU-145 prostate
A549 NSCLC = test system: A549 NSCLC
OVCAR-3 ovarian = test system: OVCAR-3 ovarian
SF-539 CNS = test system: SF-539 CNS
NCI-H522 lung = test system: NCI-H522 lung
HCT-15 colon = test system: HCT-15 colon
HOP-92 NSCLC = test system: HOP-92 NSCLC
MDA-MB-435 = test system: MDA-MB-435
HL-60(TB) leukemia = test system: HL-60(TB) leukemia
RXF 393 renal = test system: RXF 393 renal
COLO 205 colon = test system: COLO 205 colon
LOX IMVI melanoma = test system: LOX IMVI melanoma
HOP-62 NSCLC = test system: HOP-62 NSCLC
PC-3 prostate = test system: PC-3 prostate
SK-OV-3 ovarian = test system: SK-OV-3 ovarian
EKVX NSCLC = test system: EKVX NSCLC
SK-MEL-28 melanoma = test system: SK-MEL-28 melanoma
IGROV1 ovarian = test system: IGROV1 ovarian
TK-10 renal = test system: TK-10 renal
OVCAR-8 ovarian = test system: OVCAR-8 ovarian
MDA-MB-231 breast = test system: MDA-MB-231 breast
A498 renal = test system: A498 renal
SNB-75 CNS = test system: SNB-75 CNS
SF-295 CNS = test system: SF-295 CNS
SK-MEL-5 melanoma = test system: SK-MEL-5 melanoma
KM12 colon = test system: KM12 colon
CCRF-CEM leukemia = test system: CCRF-CEM leukemia
HCC-2998 colon = test system: HCC-2998 colon
RPMI-8226 leukemia = test system: RPMI-8226 leukemia
MOLT-4 leukemia = test system: MOLT-4 leukemia

Compound: CCOC(=O)C1=C(C)NC(=O)NC1c1ccc(N(CCCl)CCCl)cc1Cl (configuration not stated)
- TGI (NCI/ADR-RES ovarian): 30.3 µM
- TGI (NCI-H23 lung): 32.7 µM
- TGI (SF-268 CNS): 28.8 µM
- TGI (786-0 renal): 29.2 µM
- TGI (MALME-3M melanoma): 28.1 µM
- TGI (K-562 leukemia): 24.3 µM
- TGI (SNB-19 CNS): 31.2 µM
- TGI (CAKI-1 renal): 30.9 µM
- TGI (UO-31 renal): 27.3 µM
- TGI (ACHN renal): 27.5 µM
- TGI (NCI-H460 lung): 25.6 µM
- TGI (HS 578T breast): 36.1 µM
- TGI (SK-MEL-2 melanoma): 29.8 µM
- TGI (BT-549 breast): 28.9 µM
- TGI (SW-620 colon): 31.8 µM
- TGI (UACC-257 melanoma): 29.5 µM
- TGI (UACC-62 melanoma): 22.4 µM
- TGI (OVCAR-5 ovarian): 31.8 µM
- TGI (NCI-H226 lung): 28.8 µM
- TGI (SN12C renal): 29.8 µM
- TGI (MCF7 breast): 26.5 µM
- TGI (M14 melanoma): 29.2 µM
- TGI (OVCAR-4 ovarian): 33.1 µM
- TGI (T-47D breast): 19.5 µM
- TGI (U251 CNS): 30.2 µM
- TGI (HT29 colon): 29.5 µM
- TGI (HCT-116 colon): 27.4 µM
- TGI (DU-145 prostate): 32.1 µM
- TGI (A549 NSCLC): 26.6 µM
- TGI (OVCAR-3 ovarian): 28.8 µM
- TGI (SF-539 CNS): 30.9 µM
- TGI (NCI-H522 lung): 26.4 µM
- TGI (HCT-15 colon): 30.8 µM
- TGI (HOP-92 NSCLC): 25.7 µM
- TGI (MDA-MB-435): 33.1 µM
- TGI (HL-60(TB) leukemia): 13.4 µM
- TGI (RXF 393 renal): 30.8 µM
- TGI (COLO 205 colon): 32.6 µM
- TGI (LOX IMVI melanoma): 29.4 µM
- TGI (HOP-62 NSCLC): 28.5 µM
- TGI (PC-3 prostate): 28.5 µM
- TGI (SK-OV-3 ovarian): 33.6 µM
- TGI (EKVX NSCLC): 45.8 µM
- TGI (SK-MEL-28 melanoma): 31.4 µM
- TGI (IGROV1 ovarian): 28.4 µM
- TGI (TK-10 renal): 33.6 µM
- TGI (OVCAR-8 ovarian): 25.6 µM
- TGI (MDA-MB-231 breast): 26.5 µM
- TGI (A498 renal): 29.4 µM
- TGI (SNB-75 CNS): 28.1 µM
- TGI (SF-295 CNS): 29.2 µM
- TGI (SK-MEL-5 melanoma): 27.8 µM
- TGI (KM12 colon): 33.9 µM

Compound: CCOc1cc(F)c([N+](=O)[O-])cc1[N+](=O)[O-]
- GI50 (CCRF-CEM leukemia): 2680 nM
- TGI (CCRF-CEM leukemia): 6.4 µM
- GI50 (NCI/ADR-RES ovarian): 2880 nM
- TGI (NCI/ADR-RES ovarian): 8 µM
- GI50 (NCI-H23 lung): 2420 nM
- TGI (NCI-H23 lung): 5.56 µM
- GI50 (SF-268 CNS): 2560 nM
- TGI (SF-268 CNS): 6.46 µM
- GI50 (786-0 renal): 3.77 µM
- TGI (786-0 renal): 13.9 µM
- GI50 (K-562 leukemia): 3.01 µM
- TGI (K-562 leukemia): 57 µM
- GI50 (HCC-2998 colon): 1870 nM
- TGI (HCC-2998 colon): 3.31 µM
- GI50 (SNB-19 CNS): 3.82 µM
- TGI (SNB-19 CNS): 13.3 µM
- GI50 (CAKI-1 renal): 1190 nM
- TGI (CAKI-1 renal): 2.42 µM
- GI50 (ACHN renal): 2020 nM
- TGI (ACHN renal): 4.81 µM
- GI50 (NCI-H460 lung): 2380 nM
- TGI (NCI-H460 lung): 5.35 µM
- GI50 (HS 578T breast): 2480 nM
- TGI (HS 578T breast): 7.97 µM
- GI50 (SK-MEL-2 melanoma): 1890 nM
- TGI (SK-MEL-2 melanoma): 4.4 µM
- GI50 (BT-549 breast): 3.12 µM
- TGI (BT-549 breast): 11.2 µM
- GI50 (SW-620 colon): 1780 nM
- TGI (SW-620 colon): 3.3 µM
- GI50 (UACC-257 melanoma): 1600 nM
- TGI (UACC-257 melanoma): 3.23 µM
- GI50 (UACC-62 melanoma): 1730 nM
- TGI (UACC-62 melanoma): 3.75 µM
- GI50 (OVCAR-5 ovarian): 1800 nM
- TGI (OVCAR-5 ovarian): 4.34 µM
- GI50 (NCI-H226 lung): 2810 nM
- TGI (NCI-H226 lung): 8.48 µM
- GI50 (SN12C renal): 2000 nM
- TGI (SN12C renal): 4.32 µM
- GI50 (MCF7 breast): 886 nM
- TGI (MCF7 breast): 17.3 µM
- GI50 (M14 melanoma): 1670 nM
- TGI (M14 melanoma): 3.03 µM
- GI50 (OVCAR-4 ovarian): 1920 nM
- TGI (OVCAR-4 ovarian): 3.48 µM
- GI50 (T-47D breast): 3.31 µM
- TGI (T-47D breast): 14.7 µM
- GI50 (U251 CNS): 1690 nM
- TGI (U251 CNS): 3.24 µM
- GI50 (HCT-116 colon): 1640 nM
- TGI (HCT-116 colon): 2.99 µM
- GI50 (DU-145 prostate): 1990 nM
- TGI (DU-145 prostate): 4.04 µM
- GI50 (A549 NSCLC): 3.68 µM
- TGI (A549 NSCLC): 14.9 µM
- GI50 (OVCAR-3 ovarian): 1830 nM
- TGI (OVCAR-3 ovarian): 3.23 µM
- GI50 (SF-539 CNS): 1850 nM
- TGI (SF-539 CNS): 3.85 µM
- GI50 (NCI-H522 lung): 1500 nM
- TGI (NCI-H522 lung): 3.24 µM
- GI50 (HCT-15 colon): 2710 nM
- TGI (HCT-15 colon): 9.22 µM
- GI50 (MDA-MB-435): 2590 nM
- TGI (MDA-MB-435): 7.31 µM
- GI50 (HL-60(TB) leukemia): 1770 nM
- TGI (HL-60(TB) leukemia): 4.81 µM
- GI50 (RXF 393 renal): 1890 nM
- TGI (RXF 393 renal): 3.37 µM
- GI50 (COLO 205 colon): 2030 nM
- TGI (COLO 205 colon): 3.88 µM
- GI50 (LOX IMVI melanoma): 1660 nM
- TGI (LOX IMVI melanoma): 3.02 µM
- GI50 (HOP-62 NSCLC): 9.35 µM
- TGI (HOP-62 NSCLC): 21.6 µM
- GI50 (RPMI-8226 leukemia): 3.43 µM
- TGI (RPMI-8226 leukemia): 11.2 µM
- GI50 (PC-3 prostate): 4.63 µM
- TGI (PC-3 prostate): 18 µM
- GI50 (SK-OV-3 ovarian): 14.5 µM
- TGI (SK-OV-3 ovarian): 27.6 µM
- GI50 (EKVX NSCLC): 1850 nM
- TGI (EKVX NSCLC): 4.5 µM
- GI50 (SK-MEL-28 melanoma): 2500 nM
- TGI (SK-MEL-28 melanoma): 6.12 µM
- GI50 (MOLT-4 leukemia): 2850 nM
- TGI (MOLT-4 leukemia): 8.02 µM
- GI50 (TK-10 renal): 2910 nM
- TGI (TK-10 renal): 10.1 µM
- GI50 (OVCAR-8 ovarian): 2570 nM
- TGI (OVCAR-8 ovarian): 6.64 µM
- GI50 (MDA-MB-231 breast): 1990 nM
- TGI (MDA-MB-231 breast): 4.39 µM
- GI50 (A498 renal): 5.81 µM
- TGI (A498 renal): 18.2 µM
- GI50 (SNB-75 CNS): 3.58 µM
- TGI (SNB-75 CNS): 14.1 µM
- GI50 (SF-295 CNS): 3.19 µM
- TGI (SF-295 CNS): 12.8 µM
- GI50 (SK-MEL-5 melanoma): 2990 nM
- TGI (SK-MEL-5 melanoma): 8.4 µM
- GI50 (KM12 colon): 1810 nM
- TGI (KM12 colon): 3.49 µM

Source: PubChem BioAssay (NCI)
